Laboratory results reported in PMC9163592 (The Journal of Biological Chemistry, 2022).

Legend:
[1] = target: IsdH linker-NEAT3 (Staphylococcus aureus, UniProt Q931P4); assay: biochemical
[2] = target: IsdH NEAT3 (Staphylococcus aureus, UniProt Q931P4); assay: biochemical
IsdH NEAT3, sequence (Q931P4 539-664): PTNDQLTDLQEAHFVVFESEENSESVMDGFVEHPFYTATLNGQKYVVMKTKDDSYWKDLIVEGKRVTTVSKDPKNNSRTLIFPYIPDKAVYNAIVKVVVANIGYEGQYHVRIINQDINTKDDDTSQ

IsdH linker-NEAT3, sequence (Q931P4 486-664): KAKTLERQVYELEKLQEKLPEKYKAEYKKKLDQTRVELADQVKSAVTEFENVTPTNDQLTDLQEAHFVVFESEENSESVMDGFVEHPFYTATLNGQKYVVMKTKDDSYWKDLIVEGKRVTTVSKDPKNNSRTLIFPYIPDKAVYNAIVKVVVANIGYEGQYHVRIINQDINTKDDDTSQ

## C=CC1=C(C)C2=Cc3c(C=C)c(C)c4[n]3[Fe]([Cl])[n]3c(c(C)c(CCC(=O)O)c3=CC3=NC(=C4)C(C)=C3CCC(=O)O)=CC1=N2 [heme]
[1]
  Kd: 0.51 ± 0.16 nM
[2]
  Kd: 1.05 ± 0.15 nM
